Experimental data published in patent US20260224733A1, “NANOPARTICLES DIRECTED TO CXCR4 AND USE THEREOF” (TECHNION RESEARCH & DEVELOPMENT FOUNDATION LIMITED, priority 2023, published 2026).
Read-outs that look alike come from different tables or passages of the source.

Assays:
Format in all cases: cell-based, human
RPMI8226 cells [1] = assay: IC50 of bortezomib and ATBL in RPMI8226 cells; settings: for IC50: read-out: half maximal inhibitory concentration (IC50)
Protocol: CAG, U266 and RPMI8226 human MM cells; (American Type Culture Collection; ATCC); KMS-11 (originally from the Japanese Collection of Research Bioresource); human MM cells and MPC-11 murine myeloma cell line (kindly provided by Professor Ralph Sanderson, University of Alabama, USA) and HL60 human acute myeloid leukemia (ATCC) were used. Cells were cultured in RPMI-1640 medium supplemented with 10% fetal bovine serum (FBS), supplemented with 1% L-glutamine, 1% sodium pyruvate and 1% pen-strep-neomycin. All cells were cultured at 37° C. in 5% CO2 for no more than 6 months after being thawed from the authentic stocks.
The half maximal inhibitory concentration (IC50) of bortezomib and ATBL was evaluated in RPMI8226 cells.

RPMI8226 cells [2] = assay: Apoptosis assay (7AAD and Annexin V, flow cytometry); settings: 48 h; compared to other treatments tested
Protocol: (§1) In another experiment cells were incubated with 10% plasma obtained from vehicle-treated mice, bortezomib-treated mice (at the 24 h time-point) or ATBL-treated mice at 24, 72 and 168 h time-point post administration. Then cell viability and apoptosis status; healthy, early apoptosis, late apoptosis and dead, were determent using 7AAD and Annexin V staining and were used in accordance with the manufacturer's instruction. At least 50,000 events were acquired using a LSRFortessa flow cytometer (BD) and analyzed with FlowJo 10.
(§2) To determine the therapeutic effect of ATBL compared to free bortezomib, a cell viability and apoptosis assay was used. To this end, CAG and RPMI8226 cells were treated with ATBL, bortezomib in naked liposomes, free bortezomib, AMD on empty liposomes, free AMD, empty naked liposomes and vehicle. […] However, the inventors hypothesized that in an in vivo model, ATBL will have better therapeutic efficacy due to its targeting properties.

CAG cells = assay: as above; settings: 48 h; compared to other treatments tested
Protocol: as §1, §2

- IC50 (RPMI8226 cells [1]; Homo sapiens, RPMI-8226, RPMI8226 cells): 11 nM
- IC50 of bortezomib relative to ATBL (RPMI8226 cells [1]; RPMI8226 cells): ~2 fold
- IC50 (RPMI8226 cells [1]; RPMI8226 cells): 9.13 nM
Structure (SMILES): CC(C)C[C@H](NC(=O)[C@H](Cc1ccccc1)NC(=O)c1cnccn1)B(O)O [bortezomib, [(1R)-3-methyl-1-[[(2S)-3-phenyl-2-(pyrazine-2-carbonylamino)propanoyl]amino]butyl]boronic acid]
- late apoptosis (RPMI8226 cells [2]): significant higher late apoptosis
- late apoptosis (CAG cells): significant higher late apoptosis
